US7495011B2 (priority 2003, dated 2009)

Legend:
SARS virus [1] = conditions: background art; cited from earlier work
SARS virus [2] = test: microbe, parasite or virus in culture; assay type: cell-based, SARS-associated coronavirus; conditions: Severe acute respiratory syndrome coronavirus, Vero, read-out: EC50 (concentration required to inhibit cytopathic effects by viral infection to 50% of the control value)
in vitro = conditions: African green monkey
SARS virus [3] = assay type: cell-based, SARS-associated coronavirus; conditions: 10 μM, FIG. 1E
SARS virus [4] = assay type: cell-based, SARS-associated coronavirus; conditions: 10 μM, FIG. 1B
SARS virus [5] = assay type: cell-based, SARS-associated coronavirus; conditions: 10 μM, Vero cells, FIG. 1D

Compound	Efficacy against the SARS virus as reported in the literature (SARS virus [1])	EC50 (SARS virus [2]) [µM]	CC50 (in vitro) [µM]	RNA levels of the SARS virus in Vero cells (RT-PCR) (SARS virus [3])	Morphology of SARS virus-infected Vero cells (SARS virus [4])	SARS virus infection by immunofluorescence antibody staining (SARS virus [5])
CC1(C)[C@@H](O[C@H]2O[C@H](C(=O)O)[C@@H](O)[C@H](O)[C@H]2O[C@@H]2O[C@H](C(=O)O)[C@@H](O)[C@H](O)[C@H]2O)CC[C@]2(C)[C@H]3C(=O)C=C4[C@@H]5C[C@@](C)(C(=O)O)CC[C@]5(C)CC[C@@]4(C)[C@]3(C)CC[C@@H]12 [Glycyrrhizin, glycyrrhizin]	extremely limited potency	364	> 24300	–	–	–
Cc1c(O)cccc1C(=O)N[C@@H](CSc1ccccc1)[C@H](O)CN1C[C@H]2CCCC[C@H]2C[C@H]1C(=O)NC(C)(C)C [Nelfinavir, nelfinavir]	–	0.0484	14.6	highly inhibitive against the propagation of the SARS virus	had the same morphology as normal cells	advantageously controlled
